Test results reported in a melting point compilation (Tetko et al.; mined from patent text by program, amines drawn as free bases though some values may be those of a salt).

Compound	melting point
Cc1cccc2c(=O)n(C3CCC(=O)NC3=O)c(C)nc12 (stereo unspecified)	296 to 298 °C
CSc1cc2c(cc1C(F)(F)F)N(C(=O)Nc1ccc(-c3csc(-c4cccnc4)n3)cc1)CC2	> 25 °C
CNC(=O)Cc1ccc2c(c1)Cc1c-2[nH]c(=O)c2nccn12	> 260 °C
Cc1cc(C)cc(N(CCCC(N)=O)Cc2ccc3nc(NCCCN4CCOCC4)n(Cc4cccc(Br)n4)c3c2)c1	82 °C
CCCc1nc2c(N)nc(C)c(C)c2n1CCCCCS(C)(=O)=O	145 to 146 °C
O=C(NCC1(c2ccccc2)CCCCC1)Nc1ccc(Br)cc1	172 to 173 °C
CCOC1CN(Cc2ccc(OC)cc2)Cc2cc(OC)c(O)cc21 (stereo unspecified)	154 to 157 °C
CCCc1c(OCC(O)COc2ccc3c(=O)cc(C=CC(=O)O)oc3c2CCC)ccc(C(C)=O)c1O (stereo unspecified)	101 to 103 °C
Cc1ccc(C(c2ccc(C)cc2)N2CCCC2)cc1	61 to 63 °C
CC(C)N(CCC(CCN(C)C1CCCCC1)(C(N)=O)c1ccccc1)C(C)C (stereo unspecified)	90 to 91 °C
C#CC[C@H](c1nc2cccnc2c(=O)n1Nc1ccccc1)N(CCCN)C(=O)c1cc(F)c(F)c(F)c1F	180 to 182 °C
O=C(Nc1nccs1)c1cnc2ccccc2c1O	349 to 350 °C
O=CC(=Cc1ccccc1)c1ccc(F)cc1	87 to 94 °C
O=C1C2CCCC2=Nc2ccccc2N1Cc1ccc(Cl)cc1Cl (stereo unspecified)	144 to 145 °C
O=C(c1cc(C(F)(F)F)cc(C(F)(F)F)c1)N1CCC(Nc2nc3cccnc3n2Cc2ccco2)CC1Cc1ccccc1 (stereo unspecified)	109 °C
CC(C)(C)OC(=O)N[C@@H](Cc1ccc(O)cc1)C(=O)N[C@H](Cc1ccccc1)C(=O)NCC(=O)OCc1ccccc1	169 °C
CC1Cc2ccc(O)cc2C1(C)C (stereo unspecified)	66 to 67 °C
CC(C)(C)OC(=O)N1CCN(C(=O)OCc2ccccc2)CC1	90.5 to 91.5 °C
O=[N+]([O-])c1ccc(SC2SCC(O)C(O)C2O)cc1 (stereo unspecified)	168 °C
CN1Cc2c(C(=O)OCCO)ncn2-c2ccccc2C1=O	222 to 223 °C
CCCCc1c(C(=O)O)cc(Cl)cc1[N+](=O)[O-]	218 to 220 °C
O=C(CCCCCc1ccccc1)NNC(=O)c1ccc(O)cc1	155 to 160 °C
CC1=NC(NC(=O)Nc2cccc(C)c2)C(=O)N(CC(=O)NC(C)(C)C)c2c(C)cccc21 (stereo unspecified)	243 to 244 °C

Compound	melting point
O=P1(c2ccccc2)CCCC1CO (stereo unspecified)	109 to 110 °C
O=c1[nH]c(-c2cccc3ccccc23)nc2ccc(N3CCOCC3)cc12	291 to 293 °C
COc1cc(CCCC2SC(=O)NC2=O)ccc1OCc1csc(CCc2ccccc2)n1 (stereo unspecified)	104 to 105 °C
O=C1C=C(Nc2ccccc2F)CCN1	98 to 100 °C
O=C(O)Cc1c(-c2ccccc2)c2cc3c(cc2oc1=O)C(=O)OC3	226 to 227 °C
CC(C)(C)c1cccc(S(=O)(=O)n2c(C(C)(O)c3ccc(C(=O)O)s3)cc3cc(C(F)(F)F)ccc32)c1 (stereo unspecified)	80 °C
Cc1ccc(C2CCC(=NO)c3ccccc32)cc1 (stereo unspecified)	97 to 101 °C
CCOC(=O)C1Oc2cccnc2NC1=O (stereo unspecified)	160 to 162 °C
ON=C1Cc2ccccc2C=Cc2ccccc21	191 to 192 °C
O=C(c1cc2cc3oc(=O)[nH]c3cc2o1)N1CCC(Cc2ccccc2)CC1	205 to 210 °C
CC(O)c1ncnc(N2CCN(S(=O)(=O)N(C)C)CC2)n1 (stereo unspecified)	124 to 125 °C
CC(=O)NNc1c(C)cnc2c(NC(=O)c3c(Cl)cccc3Cl)cccc12	249 to 254 °C
Cc1ccc2c(c1)COC21CCN(CCCCCCN2CCC3(CC2)OCc2cc(C)ccc23)CC1	113 to 116 °C
CC(C)(C)OC(=O)NC1CCCCCC=CC2CC2(C(=O)NS(=O)(=O)C2CC2)NC(=O)C2CC(OC(=O)c3ccc(F)cc3)CN2C1=O (stereo unspecified)	154 to 156 °C
O=C(O)Cc1ccc([N+](=O)[O-])cc1CC(=O)O	187 to 188 °C
CC(C)c1ccc(/C=C/c2cc(/C=C/c3ccc4cc[nH]c4c3)n[nH]2)cc1	208 to 212 °C
CCCCCCCCOc1ccc(-c2cnc(-c3ccc(O)c(F)c3F)nc2)cn1	130 to 132 °C
O=Cc1cc(Oc2c(Cl)cc(C(F)(F)F)cc2Cl)ccc1[N+](=O)[O-]	115 °C
CCN1C(=O)C(C)(C)C(=O)N(C)c2cc(CN(CCn3ccc4oc(C)cc4c3=O)Cc3n[nH]c4c(C)cccc34)ccc21	111 to 118 °C
N#Cc1cnccc1-c1c(-c2ccccc2)nn2ccccc12	208 to 210 °C
COc1cc2nc(N3CCN(C(=O)CC(=O)c4ccccc4)CC3)nc(N)c2cc1OC	214 to 215 °C
COC(=O)c1cccc2c1nc(/C=C/c1ccc(OC)c(OC)c1)n2C	187 to 189 °C
CN1CCN(c2c(F)c(F)c3c(=O)c(C(=O)O)cn(C4CC4)c3c2F)CC1	245 °C
